Assay results published in patent US12128048B2, “Combination therapies using PRMT5 inhibitors for the treatment of cancer” (Mirati Therapeutics, Inc., priority 2021, dated 2024).

Assays:
[1] = test system: SW1573 PRMT5-044 lung tumor xenograft model; assay: SW1573 PRMT5-044 tumor xenograft, Example 4 (MRTX1719 with or without MRTX849); assay type: in vivo, mice; settings: MRTX1719 50 mg/kg PO QD, MRTX849 100 mg/kg PO QD
Procedure: (§1) Immunodeficient female nu/nu mice were implanted with 5×10^6 LU99 lung cancer cells in 50% Matrigel. Tumors were measured using calipers until they reached approximately 150-200 mm^3. Animals were randomized to receive A) vehicle (0.5% methylcellulose (4000 cps)/0.2% Tween80 in water), B) a PRMT5 inhibitor, C) KRAS^G12C inhibitor, or D) the PRMT5 inhibitor and KRAS^G12C inhibitor, all administered orally (PO) for 21 days. Tumor volume was measured twice a week (n=5/treatment group). Average tumor volume and standard error of the mean was calculated and plotted at each study day in GraphPad.

[2] = test system: LU99 PRMT5-041 lung tumor xenograft model; assay: LU99 PRMT5-041 tumor xenograft, Example 3 (MRTX1719 with or without MRTX849); assay type: in vivo, mice; settings: MRTX1719 50 mg/kg PO QD, MRTX849 30 mg/kg PO QD
Procedure: as §1

[3] = test system: KRAS^G12C and CDKN2A/MTAP^DEL lung tumor xenograft LU99 model; assay: LU99 lung tumor xenograft, Example 2 (MRTX7477 with or without MRTX849); settings: MRTX7477 200 mg/kg PO BID, MRTX849 30 mg/kg PO QD
Procedure: as §1

[4] = test system: KRAS^G12C and CDKN2A/MTAP^DEL lung tumor xenograft LU99 model; assay: LU99 lung tumor xenograft, Example 1 (MRTX9768 with or without MRTX849); settings: MRTX9768 100 mg/kg PO BID, MRTX849 30 mg/kg PO QD
Procedure: as §1

Q: What does the source list for `C=C(F)C(=O)N1CCN(c2nc(OC[C@@H]3CCCN3C)nc3c2CCN(c2cccc4cccc(Cl)c24)C3)C[C@@H]1CC#N` [MRTX849]?
A: Tumor Volume Mean ([1]; Day 0): 139 mm^3; Tumor Volume Mean ([1]; Day 3): 150 mm^3; Tumor Volume Mean ([1]; Day 8): 188 mm^3; Tumor Volume Mean ([1]; Day 10): 236 mm^3; Tumor Volume Mean ([1]; Day 14): 285 mm^3; Tumor Volume Mean ([1]; Day 17): 320 mm^3; Tumor Volume Mean ([1]; Day 26): 361 mm^3; Tumor Volume Mean ([2]; Day 0): 154 mm^3; Tumor Volume Mean ([2]; Day 5): 142 mm^3; Tumor Volume Mean ([2]; Day 8): 117 mm^3; Tumor Volume Mean ([2]; Day 12): 87 mm^3; Tumor Volume Mean ([2]; Day 15): 81 mm^3; Tumor Volume Mean ([2]; Day 20): 84 mm^3; Tumor Volume Mean ([2]; Day 22): 103 mm^3

Q: What does the source list for `Cn1ncc(-c2ccc3c(=O)[nH]nc(CN)c3c2)c1-c1ccc2ccccc2c1C#N` [MRTX7477]?
A: Tumor Volume ([3]; Day 1): 214.5 mm^3; Tumor Volume ([3]; Day 5): 210.7 mm^3; Tumor Volume ([3]; Day 8): 177.1 mm^3; Tumor Volume ([3]; Day 12): 185.3 mm^3; Tumor Volume ([3]; Day 15): 189.1 mm^3; Tumor Volume ([3]; Day 19): 229.5 mm^3; Tumor Volume ([3]; Day 21): 267.5 mm^3; Tumor Volume ([3]; Day −2): 129.4 mm^3

Q: What does the source list for `Cn1ncc(-c2ccc3c(=O)[nH]nc(CN)c3c2)c1-c1c(F)cc2ccccc2c1C#N` [MRTX9768]?
A: Tumor Volume Mean ([4]; Day 0): 183.59 mm^3; Tumor Volume Mean ([4]; Day 3): 265.26 mm^3; Tumor Volume Mean ([4]; Day 7): 331.80 mm^3; Tumor Volume Mean ([4]; Day 10): 349.53 mm^3; Tumor Volume Mean ([4]; Day 14): 406.58 mm^3; Tumor Volume Mean ([4]; Day 17): 431.91 mm^3; Tumor Volume Mean ([4]; Day 21): 458.95 mm^3
